Experimental data taken from ChEMBL document CHEMBL3739374, “Synthesis and evaluation of anticancer activity of novel andrographolide derivatives” (Medchemcomm, 2015).
≈ marks a conversion by molar mass, not a printed value.

Columns and labels:
B16 = assay: Cytotoxicity against mouse B16 cells by MTT assay; format: functional, cell-based
[1] = Cytotoxicity against rat IEC-6 cells by MTT assay; format: cell-based
A549 = assay: Cytotoxicity against human A549 cells by MTT assay; format: functional, cell-based
ACHN = assay: Cytotoxicity against human ACHN cells by MTT assay; format: functional, cell-based
HeLa = assay: Cytotoxicity against human HeLa cells by MTT assay; format: functional, cell-based

Row | Structure (SMILES) | IC50 (B16) [µg/mL] | IC50 [1] [µg/mL] | IC50 (A549) [µg/mL] | IC50 (ACHN) [µg/mL] | IC50 (HeLa) [µg/mL]
1 | C=C1CC[C@@H]2[C@](C)(CO)[C@H](O)CC[C@@]2(C)[C@@H]1/C=C/C1=CCOC1=O | 25.2 (≈ 75.7 µM) | 169 (≈ 509 µM) | 117 (≈ 353 µM) | 328 (≈ 986 µM) | 149 (≈ 448 µM)
2 | C=C1CC[C@@H]2[C@]3(C)CO[C@@H](c4ccccc4)O[C@@H]3CC[C@@]2(C)[C@@H]1C/C=C1/C(=O)OC[C@H]1O | 9.54 (≈ 21.8 µM) | 19.2 (≈ 43.8 µM) | 4.07 (≈ 9.28 µM) | 4.78 (≈ 10.9 µM) | 3.8 (≈ 8.66 µM)
3 | C[C@@H]1OC[C@@]2(C)[C@H]3CC[C@@]4(CO4)[C@@H](/C=C/C4=CCOC4=O)[C@]3(C)CC[C@H]2O1 | 44.1 (≈ 118 µM) | 35.1 (≈ 93.6 µM) | 18.2 (≈ 48.6 µM) | 57.3 (≈ 153 µM) | 7.78 (≈ 20.8 µM)
4 | C=C1CC[C@@H]2[C@]3(C)CO[C@@H](CCCCC)O[C@@H]3CC[C@@]2(C)[C@@H]1C/C=C1/C(=O)OC[C@H]1O | 10 (≈ 23.1 µM) | 22.4 (≈ 51.7 µM) | 7.07 (≈ 16.3 µM) | 9.54 (≈ 22.1 µM) | 8.51 (≈ 19.7 µM)
5 | C=C1CC[C@@H]2[C@]3(C)CO[C@@H](C)O[C@@H]3CC[C@@]2(C)[C@@H]1C/C=C1/C(=O)OC[C@H]1O | 4.78 (≈ 12.7 µM) | 6.34 (≈ 16.8 µM) | 2.43 (≈ 6.45 µM) | 2.47 (≈ 6.56 µM) | 4.27 (≈ 11.3 µM)
6 | C=C1CC[C@@H]2[C@]3(C)CO[C@@H](C)O[C@@H]3CC[C@@]2(C)[C@@H]1/C=C/C1=CCOC1=O | 62 (≈ 173 µM) | 94.3 (≈ 263 µM) | 88.7 (≈ 247 µM) | 125 (≈ 349 µM) | 56.2 (≈ 157 µM)
7 | C=C1CC[C@@H]2[C@]3(C)CO[C@@H](C)O[C@@H]3CC[C@@]2(C)[C@@H]1C/C=C1\C=COC1=O | 43 (≈ 120 µM) | 40 (≈ 112 µM) | 46.9 (≈ 131 µM) | 60.6 (≈ 169 µM) | 48.6 (≈ 135 µM)
8 | C=C1CC[C@@H]2[C@]3(C)CO[C@@H](CCC)O[C@@H]3CC[C@@]2(C)[C@@H]1C/C=C1/C(=O)OC[C@H]1O | 44.4 (≈ 110 µM) | 14.1 (≈ 35 µM) | 23 (≈ 56.8 µM) | 32.9 (≈ 81.4 µM) | 27 (≈ 66.8 µM)
9 | C=C1CC[C@@H]2[C@]3(C)CO[C@@H](C)O[C@@H]3CC[C@@]2(C)[C@@H]1C/C=C1/C(=O)OC[C@H]1OC(C)=O | 4.01 (≈ 9.58 µM) | 7.23 (≈ 17.3 µM) | 3.34 (≈ 7.98 µM) | 8.54 (≈ 20.4 µM) | 4.43 (≈ 10.6 µM)
10 | CC(=O)O[C@@H]1COC(=O)/C1=C/C[C@@H]1[C@@]2(CC[C@@H]3[C@]4(C)CO[C@@H](C)O[C@@H]4CC[C@]31C)CO2 | 6.98 (≈ 16.1 µM) | 14.5 (≈ 33.4 µM) | 4.37 (≈ 10.1 µM) | 5.58 (≈ 12.8 µM) | 7.12 (≈ 16.4 µM)
11 | C[C@@H]1OC[C@@]2(C)[C@H]3CC[C@@]4(CO4)[C@@H](C/C=C4/C(=O)OC[C@H]4O)[C@]3(C)CC[C@H]2O1 | 6.34 (≈ 16.2 µM) | 8.76 (≈ 22.3 µM) | 4.34 (≈ 11.1 µM) | 4.49 (≈ 11.4 µM) | 6.97 (≈ 17.8 µM)
12 | C=C1CC[C@@H]2[C@]3(C)CO[C@@H](CC)O[C@@H]3CC[C@@]2(C)[C@@H]1C/C=C1/C(=O)OC[C@H]1O | 10.2 (≈ 26.2 µM) | 14.2 (≈ 36.4 µM) | 8.12 (≈ 20.8 µM) | 14.7 (≈ 37.6 µM) | 8.91 (≈ 22.8 µM)
13 | C=C1CC[C@@H]2[C@]3(C)CO[C@@H](CCCC)O[C@@H]3CC[C@@]2(C)[C@@H]1C/C=C1/C(=O)OC[C@H]1O | 21.1 (≈ 50.4 µM) | 31.2 (≈ 74.6 µM) | 33.5 (≈ 80.1 µM) | 15.3 (≈ 36.7 µM) | 14.1 (≈ 33.6 µM)
14 | C=C1CC[C@@H]2[C@](C)(CO)[C@H](O)CC[C@@]2(C)[C@@H]1C/C=C1/C(=O)OC[C@H]1O [ANDROGRAPHOLIDE] | 7.54 (≈ 21.5 µM) | 8.26 (≈ 23.6 µM) | 9.71 (≈ 27.7 µM) | 3.03 (≈ 8.65 µM) | 10.4 (≈ 29.7 µM)
15 | COc1cccc2c1C(=O)c1c(O)c3c(c(O)c1C2=O)C[C@@](O)(C(=O)CO)C[C@@H]3O[C@H]1C[C@H](N)[C@H](O)[C@H](C)O1 [DOXORUBICIN] | 3.16 (≈ 5.81 µM) | 2.6 (≈ 4.78 µM) | – | 2.08 (≈ 3.83 µM) | 1.28 (≈ 2.35 µM)
